The NIST ThermoML archive (doi:10.1016/j.jct.2016.09.036)
± gives the expanded uncertainty stated by the source.

Legend:
[1] = for mass density: 298.15 K, 101.33 kPa
[2] = Molar enthalpy of transition or fusion; settings: Crystal 1; DSC

Structure (SMILES): O=C(NC[C@H]1CN(c2ccc(N3CCOCC3=O)cc2)C(=O)O1)c1ccc(Cl)s1 [Rivaroxaban]
- mass density ([1]; Crystal 1, Pycnometric method): 1517.1 ± 2.1 kg/m3
- mass density ([1]; Crystal 1, X-ray diffraction): 1516.7 ± 7.4 kg/m3
- mass density ([1]; Metastable crystal, Pycnometric method): 1355.3 ± 2.1 kg/m3
- mass density ([1]; Metastable crystal, X-ray diffraction): 1362.9 ± 25 kg/m3
- Triple point temperature ([1]; Crystal 1, DSC): 501.41 ± 7.8 K
- Molar enthalpy of transition or fusion [2]: 11.2 ± 0.502 kcal/mol
